Reference: US6669939B1, “(Poly)peptides which represent the epitopes of the human herpes virus type 8” (Biotrin International Properties Limited, priority 1998, dated 2003)

Tested on: anti-EBV antibodies
Assay: ELISA with EBV control peptide, comparing antibody titers against HHV-8 and EBV
Assay type: binding, human
Experimental: Various control panels as well as control peptides were used to test the specificity of the HHV-8 antibody ELISA. Using an EBV control peptide (cf. table 2), analyses were carried out to compare antibody titers against HHV-8 and EBV (a closely related herpesvirus). In 56 out of 64 cases the observed antibody titers were at least 30% divergent; the EBV seroprevalence was 86% with HIV-positive patients and 72% with the controls.

## S G S G Q E P P A P Q A P I (SGSGQEPPAPQAPI; Epstein-Barr virus) [EBV control peptide, control peptide, Epstein-Barr virus strain B95-8, EBNA 6, position 100695-100724, with SGSG spacer]
HIV-positive patients
  EBV seroprevalence: 86%
controls
  EBV seroprevalence: 72%
